In ChEMBL document CHEMBL5042539, “Structure-Guided Discovery of the Novel Covalent Allosteric Site and Covalent Inhibitors of Fructose-1,6-Bisphosphate Aldolase to Overcome the Azole Resistance of Candidiasis” (J Med Chem, 2022):
≈ marks a conversion by molar mass, not a printed value.

Columns and labels:
[1] = Inhibition of Candida albicans Fructose-1,6-Bisphosphate Aldolase C111S mutant transfected in Escherichia coli BL21 (DE3) incubated for 3 mins in presence of NADH by spectrophotometric analysis
[2] = Inhibition of Candida albicans Fructose-1,6-Bisphosphate Aldolase C157S mutant transfected in Escherichia coli BL21 (DE3) incubated for 3 mins in presence of NADH by spectrophotometric analysis
[3] = Inhibition of Candida albicans Fructose-1,6-Bisphosphate Aldolase C292S mutant transfected in Escherichia coli BL21 (DE3) incubated for 3 mins in presence of NADH by spectrophotometric analysis
Candida albicans [4] = assay: Inhibition of wild type Candida albicans Fructose-1,6-Bisphosphate Aldolase transfected in Escherichia coli BL21 (DE3) assessed as Kcat/Km by kinetic based analysis
Candida albicans [5] = assay: Inhibition of Candida albicans Fructose-1,6-Bisphosphate Aldolase C292S mutant transfected in Escherichia coli BL21 (DE3) at 500 uM incubated for 3 mins in presence of NADH by spectrophotometric analysis relative to control
Candida albicans [6] = assay: Binding affinity to Candida albicans Fructose-1,6-Bisphosphate Aldolase assessed as ratio of kinact/Ki incubated for 12 to 40 mins by NADH-linked enzymatic assay; conditions: time 12-40 min
Candida albicans [7] = assay: Inhibition of Candida albicans Fructose-1,6-Bisphosphate Aldolase C111S mutant transfected in Escherichia coli BL21 (DE3) assessed as Kcat by kinetic based analysis
Candida albicans [8] = assay: Inhibition of Candida albicans Fructose-1,6-Bisphosphate Aldolase C292S mutant transfected in Escherichia coli BL21 (DE3) assessed as Kcat by kinetic based analysis
Candida albicans [9] = assay: Inhibition of wild type Candida albicans Fructose-1,6-Bisphosphate Aldolase transfected in Escherichia coli BL21 (DE3) assessed as Kcat by kinetic based analysis
Candida albicans [10] = assay: Binding affinity to Candida albicans Fructose-1,6-Bisphosphate Aldolase assessed as Kinact incubated for 12 to 40 mins by NADH-linked enzymatic assay; conditions: time 12-40 min
Candida albicans [11] = assay: Inhibition of wild type Candida albicans Fructose-1,6-Bisphosphate Aldolase transfected in Escherichia coli BL21 (DE3) assessed as Km by kinetic based analysis
Candida albicans [12] = assay: Inhibition of Candida albicans Fructose-1,6-Bisphosphate Aldolase C111S mutant transfected in Escherichia coli BL21 (DE3) assessed as Km by kinetic based analysis
Candida albicans [13] = assay: Inhibition of Candida albicans Fructose-1,6-Bisphosphate Aldolase C292S mutant transfected in Escherichia coli BL21 (DE3) assessed as Kcat/Km by kinetic based analysis
Candida albicans [14] = assay: Inhibition of Candida albicans Fructose-1,6-Bisphosphate Aldolase C157S mutant transfected in Escherichia coli BL21 (DE3) assessed as Kcat by kinetic based analysis
[15] = Inhibition of wild type Candida albicans Fructose-1,6-Bisphosphate Aldolase transfected in Escherichia coli BL21 (DE3) incubated for 3 mins in presence of NADH by spectrophotometric analysis
Candida albicans [16] = assay: Inhibition of Candida albicans Fructose-1,6-Bisphosphate Aldolase C111S mutant transfected in Escherichia coli BL21 (DE3) assessed as Kcat/Km by kinetic based analysis
[17] = Binding affinity to Candida albicans Fructose-1,6-Bisphosphate Aldolase assessed as inhibition constant incubated for 12 to 40 mins by NADH-linked enzymatic assay
Candida albicans [18] = assay: Selectivity ratio of IC50 for inhibition of Candida albicans Fructose-1,6-Bisphosphate Aldolase C292S mutant to IC50 for inhibition of wild type Candida albicans Fructose-1,6-Bisphosphate Aldolase
Candida albicans [19] = assay: Inhibition of Candida albicans Fructose-1,6-Bisphosphate Aldolase C292S mutant transfected in Escherichia coli BL21 (DE3) assessed as Km by kinetic based analysis
Candida albicans [20] = assay: Inhibition of Candida albicans Fructose-1,6-Bisphosphate Aldolase C157S mutant transfected in Escherichia coli BL21 (DE3) assessed as Km by kinetic based analysis
Candida albicans [21] = assay: Inhibition of Candida albicans Fructose-1,6-Bisphosphate Aldolase C157S mutant transfected in Escherichia coli BL21 (DE3) assessed as Kcat/Km by kinetic based analysis
Candida albicans [22] = assay: Antifungal activity against fluconazole resistant Candida albicans 7781 incubated for 48 hrs by CLSI based broth microdilution method; type: functional
Candida albicans [23] = assay: Antifungal activity against fluconazole resistant Candida albicans 904 incubated for 48 hrs by CLSI based broth microdilution method; type: functional
Candida albicans [24] = assay: Antifungal activity against fluconazole resistant Candida albicans 103 incubated for 48 hrs by CLSI based broth microdilution method; type: functional
[25] = Cytotoxicity against human HaCaT cells; type: toxicity, cell-based
[26] = Toxicity in po dosed rat assessed as lethal dose; type: organism-based; conditions: in vivo
Candida albicans [27] = assay: Antifungal activity against Candida albicans SC5314 incubated for 48 hrs by CLSI based broth microdilution method; type: functional

**Q.** Which IC50 [1] does the source give for CCCCn1sc2ccccc2c1=O here?
**A.** 9900 nM

**Q.** What about the IC50 [2] of the same compound?
**A.** 12500 nM

**Q.** And the IC50 [3]?
**A.** > 500000 nM

**Q.** What about the kcat/Km (Candida albicans [4]) of the same compound?
**A.** 1.8e+06 M⁻¹ s⁻¹

**Q.** And the inhibition (Candida albicans [5])?
**A.** < 50%

**Q.** And the Ratio (Candida albicans [6])?
**A.** 300 M⁻¹ s⁻¹

**Q.** And the kcat (Candida albicans [7])?
**A.** 36.1 s⁻¹

**Q.** What about the kcat (Candida albicans [8]) of the same compound?
**A.** 24.8 s⁻¹

**Q.** What about the kcat (Candida albicans [9]) of the same compound?
**A.** 38.6 s⁻¹

**Q.** What about the Kinact (Candida albicans [10]) of the same compound?
**A.** 0.00178 s⁻¹

**Q.** And the Km (Candida albicans [11])?
**A.** 21.9 µM

**Q.** And the Km (Candida albicans [12])?
**A.** 25.1 µM

**Q.** What about the kcat/Km (Candida albicans [13]) of the same compound?
**A.** 500000 M⁻¹ s⁻¹

**Q.** And the kcat (Candida albicans [14])?
**A.** 34.7 s⁻¹

**Q.** What about the IC50 [15] of the same compound?
**A.** 17700 nM

**Q.** And the kcat/Km (Candida albicans [16])?
**A.** 1.4e+06 M⁻¹ s⁻¹

**Q.** And the Ki [17]?
**A.** 5960 nM

**Q.** What about the Ratio IC50 (Candida albicans [18]) of the same compound?
**A.** > 28.3

**Q.** And the Km (Candida albicans [19])?
**A.** 45.7 µM

**Q.** And the Km (Candida albicans [20])?
**A.** 17.8 µM

**Q.** And the kcat/Km (Candida albicans [21])?
**A.** 2e+06 M⁻¹ s⁻¹

**Q.** For O=c1c2ccccc2[se]n1-c1ccccc1 [EBSELEN], which IC50 [1] is on record?
**A.** 72.6 nM

**Q.** What about the MIC80 (Candida albicans [22]) of the same compound?
**A.** 2 µg/mL (≈ 7.29 µM)

**Q.** And the IC50 [2]?
**A.** 31 nM

**Q.** What about the IC50 [3] of the same compound?
**A.** 1150 nM

**Q.** What about the MIC80 (Candida albicans [23]) of the same compound?
**A.** 2 µg/mL (≈ 7.29 µM)

**Q.** What about the MIC80 (Candida albicans [24]) of the same compound?
**A.** 2 µg/mL (≈ 7.29 µM)

**Q.** What about the IC50 [25] of the same compound?
**A.** > 32000 nM

**Q.** And the IC50 [15]?
**A.** 14.3 nM

**Q.** And the Ratio IC50 (Candida albicans [18])?
**A.** 80.4

**Q.** And the LD [26]?
**A.** > 4600 mg/kg

**Q.** What about the MIC80 (Candida albicans [27]) of the same compound?
**A.** 2 µg/mL (≈ 7.29 µM)

**Q.** Which results are given for O=c1c2ccccc2[se]n1-c1nncs1?
**A.** IC50 [1]: 303 nM; IC50 [2]: 227 nM; IC50 [3]: 1750 nM; IC50 [15]: 155 nM; Ratio IC50 (Candida albicans [18]): 11.3
